The subject of assay [1] is MES-induced seizure in mice. The assay can be described thus: Maximal electroshock (MES) induced seizure test. Format: in vivo, Male NMRI mice. The settings on record: for responders at 1 mg/kg / responders at 2 mg/kg / responders at 5 mg/kg / responders at 10 mg/kg / responders at 20 mg/kg / responders at 50 mg/kg / responders at 100 mg/kg: Mus musculus; for responders at 1 mg/kg: dose 1 mg/kg ip; for responders at 5 mg/kg: dose 5 mg/kg ip; for responders at 10 mg/kg: dose 10 mg/kg ip; for responders at 20 mg/kg: dose 20 mg/kg ip; for responders at 50 mg/kg: dose 50 mg/kg ip; for responders at 100 mg/kg: dose 100 mg/kg ip. (In general: Protection in the maximal electroshock model is a classic sign of anticonvulsant action.)

Assay [2] deals with PTZ-induced lethal convulsion in mice. The assay can be described thus: Pentylenetetrazole (PTZ) induced seizure test. Format: in vivo, Male NMRI mice. To be noted: Mus musculus; for responders at 2 mg/kg: dose 2 mg/kg ip; for responders at 5 mg/kg: dose 5 mg/kg ip; for responders at 10 mg/kg: dose 10 mg/kg ip; for responders at 50 mg/kg: dose 50 mg/kg ip.
The mark [3] stands for this setting: MES 50 mA, 60 Hz, 0.2 s, read-out: MES Number of animals protected / Number of tested animals (converted).
The mark [4] stands for this setting: dose 2 mg/kg ip, MES 50 mA, 60 Hz, 0.2 s, read-out: MES Number of animals protected / Number of tested animals (converted).
Setting [5] is: dose 2 mg/kg ip, read-out: MES %Protection.
Setting [6] is: 30 min before PTZ 100 mg/kg ip, read-out: PTZ Number of animals protected / Number of tested animals.
Setting [7] is: PTZ 100 mg/kg ip, read-out: PTZ %Protection.
Where [8] appears, read: 30 min before PTZ 100 mg/kg ip, read-out: PTZ Number of animals protected / Number of tested animals (converted).

Like-named read-outs stand apart in the source and are kept apart here.

In the case of `O=C(CSc1nnc(-c2ccccc2Oc2ccccc2)o1)Nc1ccc([N+](=O)[O-])cc1` [Compound 8L, N-(4-nitrophenyl)-2-((5-(2-phenoxyphenyl)-1,3,4-oxadiazol-2-yl)thio)acetamide], the responders at 1 mg/kg in assay [1] (setting [3]) and in assay [1] (read-out: MES %Protection) was 25% in each case. For the same compound, the responders at 2 mg/kg was 25% in assay [1] (setting [4]), 25% in assay [1] (setting [5]), 0% in assay [2] (setting [6]) and 0% in assay [2] (setting [7]). In addition, the responders at 5 mg/kg in assay [1] (setting [3]) was 75%; in assay [1] (read-out: MES %Protection), 75%; in assay [2] (setting [8]), 25%; in assay [2] (setting [7]) it was 25%. Moreover, the responders at 10 mg/kg in assay [1] (setting [3]) is 50%; in assay [1] (read-out: MES %Protection), 50%; in assay [2] (setting [8]), 0%; in assay [2] (setting [7]), 0%.
On to `O=C(CSc1nnc(-c2ccccc2Oc2ccccc2)o1)Nc1ccccc1` [Compound 8a, 2-((5-(2-phenoxyphenyl)-1,3,4-oxadiazol-2-yl)thio)-N -phenylacetamide], for which the responders at 1 mg/kg in assay [1] (setting [3]) and in assay [1] (read-out: MES %Protection) was 62.5% in each case. The responders at 2 mg/kg in assay [1] (setting [4]) and in assay [1] (setting [5]) was 50% each time. Moreover, the responders at 5 mg/kg in assay [1] (setting [3]) is 50%; in assay [1] (read-out: MES %Protection), 50%; in assay [2] (setting [8]), 0%; in assay [2] (setting [7]) it was 0%. For the same compound, the responders at 10 mg/kg in assay [1] (setting [3]) and in assay [1] (read-out: MES %Protection) was 50% throughout. Also, the responders at 20 mg/kg in assay [1] (setting [3]) and in assay [1] (read-out: MES %Protection) was 50% each time.
On to `Cc1ccc(NC(=O)CSc2nnc(-c3ccccc3Oc3ccccc3)o2)cc1` [Compound 8b, 2-((5-(2-phenoxyphenyl)-1,3,4-oxadiazol-2-yl)thio)-N -(p-tolyl)acetamide], for which the responders at 1 mg/kg in assay [1] (setting [3]) and in assay [1] (read-out: MES %Protection) was 0% throughout. In addition, the responders at 10 mg/kg in assay [1] (setting [3]) and in assay [1] (read-out: MES %Protection) was 25% throughout. Also, the responders at 50 mg/kg amounted to 40% in assay [1] (MES 50 mA, 60 Hz, 0.2 s, read-out: MES Number of animals protected / Number of tested animals); 40% in assay [1] (read-out: MES %Protection); 0% in assay [2] (setting [6]); 0% in assay [2] (setting [7]). Further, the responders at 100 mg/kg in assay [1] (setting [3]) and in assay [1] (read-out: MES %Protection) was 75% throughout.
For the compound `COc1ccc(NC(=O)CSc2nnc(-c3ccccc3Oc3ccccc3)o2)cc1` [Compound 8c, N-(4-methoxyphenyl)-2-((5-(2-phenoxyphenyl)-1,3,4-oxadiazol-2-yl)thio)acetamide], the responders at 1 mg/kg in assay [1] (setting [3]) and in assay [1] (read-out: MES %Protection) was 0% in each case. Further, the responders at 2 mg/kg in assay [1] (setting [4]) is 25%; in assay [1] (setting [5]), 25%; in assay [2] (setting [6]) it was 0%; in assay [2] (setting [7]), 0%. Moreover, the responders at 5 mg/kg in assay [1] (setting [3]) and in assay [1] (read-out: MES %Protection) was 25% each time. Besides, the responders at 10 mg/kg in assay [1] (setting [3]) and in assay [1] (read-out: MES %Protection) was 25% in each case. Further, the responders at 20 mg/kg in assay [1] (setting [3]) and in assay [1] (read-out: MES %Protection) was 75% in each case.
As for `O=C(CSc1nnc(-c2ccccc2Oc2ccccc2)o1)Nc1ccc(F)cc1` [Compound 8d, N-(4-fluorophenyl)-2-((5-(2-phenoxyphenyl)-1,3,4-oxadiazol-2-yl)thio)acetamide], the responders at 1 mg/kg in assay [1] (setting [3]) and in assay [1] (read-out: MES %Protection) was 25% each time. The responders at 2 mg/kg in assay [1] (setting [4]) and in assay [1] (setting [5]) was 50% each time. In addition, the responders at 5 mg/kg in assay [1] (setting [3]) was 50%; in assay [1] (read-out: MES %Protection) it was 50%; in assay [2] (setting [8]) it was 0%; in assay [2] (setting [7]) it was 0%. The responders at 10 mg/kg in assay [1] (setting [3]) and in assay [1] (read-out: MES %Protection) was 50% in each case. Besides, the responders at 20 mg/kg in assay [1] (setting [3]) and in assay [1] (read-out: MES %Protection) was 25% each time.
In the case of `O=C(CSc1nnc(-c2ccccc2Oc2ccccc2)o1)Nc1ccc(F)cc1F` [Compound 8e, N-(2,4-difluorophenyl)-2-((5-(2-phenoxyphenyl)-1,3,4-oxadiazol-2-yl)thio)acetamide], the responders at 1 mg/kg in assay [1] (setting [3]) and in assay [1] (read-out: MES %Protection) was 25% each time. Besides, the responders at 5 mg/kg in assay [1] (setting [3]) was 25%; in assay [1] (read-out: MES %Protection) it was 25%; in assay [2] (setting [8]), 0%; in assay [2] (setting [7]), 0%. For the same compound, the responders at 10 mg/kg in assay [1] (setting [3]) and in assay [1] (read-out: MES %Protection) was 25% each time.
Consider `O=C(CSc1nnc(-c2ccccc2Oc2ccccc2)o1)Nc1ccccc1Cl` [Compound 8f, N-(2-chlorophenyl)-2-((5-(2-phenoxyphenyl)-1,3,4-oxadiazol-2-yl)thio)acetamide], for which the responders at 5 mg/kg in assay [1] (setting [3]), in assay [1] (read-out: MES %Protection), in assay [2] (setting [8]) and in assay [2] (setting [7]) was 0% each time. The responders at 10 mg/kg in assay [1] (setting [3]) and in assay [1] (read-out: MES %Protection) was 25% in each case. The responders at 20 mg/kg in assay [1] (setting [3]) and in assay [1] (read-out: MES %Protection) was 75% each time.
In the case of `O=C(CSc1nnc(-c2ccccc2Oc2ccccc2)o1)Nc1cccc(Cl)c1` [Compound 8g, N-(3-chlorophenyl)-2-((5-(2-phenoxyphenyl)-1,3,4-oxadiazol-2-yl)thio)acetamide], the responders at 1 mg/kg in assay [1] (setting [3]) and in assay [1] (read-out: MES %Protection) was 62.5% in each case. Besides, the responders at 2 mg/kg in assay [1] (setting [4]) and in assay [1] (setting [5]) was 25% in each case. Further, the responders at 5 mg/kg was 50% in assay [1] (setting [3]), 50% in assay [1] (read-out: MES %Protection), 0% in assay [2] (setting [8]) and 0% in assay [2] (setting [7]). For the same compound, the responders at 10 mg/kg in assay [1] (setting [3]) and in assay [1] (read-out: MES %Protection) was 75% each time. The responders at 20 mg/kg in assay [1] (setting [3]) and in assay [1] (read-out: MES %Protection) was 62.5% each time.
On to `O=C(CSc1nnc(-c2ccccc2Oc2ccccc2)o1)Nc1cc(Cl)cc(Cl)c1` [Compound 8h, N-(3,5-dichlorophenyl)-2-((5-(2-phenoxyphenyl)-1,3,4-oxadiazol-2-yl)thio)acetamide], for which the responders at 1 mg/kg in assay [1] (setting [3]) and in assay [1] (read-out: MES %Protection) was 0% each time. Also, the responders at 2 mg/kg in assay [1] (setting [4]) and in assay [1] (setting [5]) was 25% in each case. The responders at 5 mg/kg in assay [1] (setting [3]) is 25%; in assay [1] (read-out: MES %Protection), 25%; in assay [2] (setting [8]), 0%; in assay [2] (setting [7]), 0%. In addition, the responders at 10 mg/kg in assay [1] (setting [3]) and in assay [1] (read-out: MES %Protection) was 25% in each case. For the same compound, the responders at 20 mg/kg in assay [1] (setting [3]) and in assay [1] (read-out: MES %Protection) was 50% in each case.
With `O=C(CSc1nnc(-c2ccccc2Oc2ccccc2)o1)Nc1cccc(Br)c1` [Compound 8i, N-(3-bromophenyl)-2-((5-(2-phenoxyphenyl)-1,3,4-oxadiazol-2-yl)thio)acetamide], in assay [1] (setting [3]), the responders at 1 mg/kg is 0%, the responders at 5 mg/kg was 50%, the responders at 10 mg/kg is 25% and the responders at 20 mg/kg is 50%. In assay [1] (read-out: MES %Protection), the responders at 1 mg/kg is 0%, the responders at 5 mg/kg stood at 50%, the responders at 10 mg/kg was determined as 25% and the responders at 20 mg/kg turned out to be 50%. In assay [2] (setting [8]), the responders at 5 mg/kg is 0%. Moreover, the responders at 5 mg/kg in assay [2] (setting [7]) turned out to be 0%.
As to `O=C(CSc1nnc(-c2ccccc2Oc2ccccc2)o1)Nc1ccc(Br)cc1` [Compound 8j, N-(4-bromophenyl)-2-((5-(2-phenoxyphenyl)-1,3,4-oxadiazol-2-yl)thio)acetamide], the responders at 1 mg/kg in assay [1] (setting [3]) and in assay [1] (read-out: MES %Protection) was 25% each time. Moreover, the responders at 5 mg/kg was 50% in assay [1] (setting [3]), 50% in assay [1] (read-out: MES %Protection), 0% in assay [2] (setting [8]) and 0% in assay [2] (setting [7]). Besides, the responders at 10 mg/kg is 50% in assay [1] (setting [3]), 50% in assay [1] (read-out: MES %Protection), 25% in assay [2] (setting [8]) and 25% in assay [2] (setting [7]).
Take `CN1C(=O)CN=C(c2ccccc2)c2cc(Cl)ccc21` [Diazepam, reference compound]: the “MES Number of animals protected / Number of tested animals” value in assay [1] (dose 2 mg/kg ip, with flumazenil 1 mg/kg ip 15 min before seizure induction) was 0/6.
